Reference: patent US20220105150A1, “AMPHIPATHIC ALPHA-HELICAL ANTIMICROBIAL PEPTIDES TREAT INFECTIONS BY GRAM-NEGATIVE PATHOGENS” (priority 2019, published 2022)
Converted amounts (≈) assume the structure as drawn.

Assays:
[1] = test system: Acinetobacter baumannii strains resistant to Polymyxin B and Colistin; settings: for MICGM: geometric mean of MIC values from seven strains resistant to Polymyxin B and Colistin; for MIC MB9941: strain MB9941; for MIC MB9941 / MIC MB9949 / MIC MB9951 / MIC MB9952 / MIC MB9953 / MIC MB9955 / MIC MB9963: Mueller-Hinton medium, 37° C., 24 h; for MIC MB9949: strain MB9949; for MIC MB9951: strain MB9951; for MIC MB9952: strain MB9952; for MIC MB9953: strain MB9953; for MIC MB9955: strain MB9955; for MIC MB9963: strain MB9963
[2] = test system: Acinetobacter baumannii isolates resistant to classical antibiotics; type: cell-based; settings: for MICGM: geometric mean over 20 strains; for MIC 101887: strain 101887 (lower line); for MIC 961997: strain 961997 (lower line); for MIC 963618: strain 963618 (lower line); for MIC 964304: strain 964304 (lower line); for MIC 977751: strain 977751 (lower line); for MIC 981653: strain 981653 (lower line); for MIC 1002956: strain 1002956 (lower line); for MIC 1007660: strain 1007660 (lower line); for MIC 1010282: strain 1010282 (lower line); for MIC 1035166: strain 1035166 (lower line)
A. baumannii strain 649 = type: cell-based, Acinetobacter baumannii; settings: for fold loss of antimicrobial activity in 25% human sera: 25% human sera versus no serum; for MIC 25% human serum: MH medium supplemented with 25% (v/v) human sera; for MIC No serum: MH medium
Experimental: Hemoglobin release was determined spectrophotometrically at 570 nm.
Because only unbound AMP is available to interact with the therapeutic target, the extent of binding between AMPs and serum proteins can have significant effects on efficacy of these drugs. […] This assay estimates the in vivo bioavailability of our AMPs. […] An increase in MIC in the presence of serum is attributed to inhibition of antimicrobial activity due to binding to serum proteins.

[3] = Helical structure by circular dichroism spectroscopy; type: physicochemical; settings: for Aqueous pH 7 [θ]222: 100 mM KCl, 50 mM Na2HPO4/NaH2PO4, pH 7.0; for Aqueous pH 7 [θ]222 / 50% TFE [θ]222: 222 nm; for 50% TFE [θ]222: aqueous buffer containing 50% trifluoroethanol; for Δ[Θ]222 TFE-aqueous: difference 50% TFE minus aqueous; for % Helix Induced: increase in molar ellipticity in the presence of 50% TFE; for Aqueous pH 7 % Helix: relative to molar ellipticity of the peptide in 50% TFE

| SMILES | MICGM [1] [µM] | MIC MB9941 [1] [µM] | MIC MB9949 [1] [µM] | MIC MB9951 [1] [µM] | MIC MB9952 [1] [µM] | MIC MB9953 [1] [µM] | MIC MB9955 [1] [µM] | MIC MB9963 [1] [µM] | MICGM [2] [µM] | MIC 101887 [2] [µM] | MIC 961997 [2] [µM] | MIC 963618 [2] [µM] | MIC 964304 [2] [µM] | MIC 977751 [2] [µM] | MIC 981653 [2] [µM] | MIC 1002956 [2] [µM] | MIC 1007660 [2] [µM] | MIC 1010282 [2] [µM] | MIC 1035166 [2] [µM] | fold loss of antimicrobial activity in 25% human sera (A. baumannii strain 649) [fold] | also measured |
| --- | --- | --- | --- | --- | --- | --- | --- | --- | --- | --- | --- | --- | --- | --- | --- | --- | --- | --- | --- | --- | --- |
| CC(=O)N[C@H](CCCCN)C(=O)N[C@H](CC(C)C)C(=O)N[C@H](CCN)C(=O)N[C@H](CO)C(=O)N[C@H](CC(C)C)C(=O)N[C@H](CC(C)C)C(=O)N[C@H](CCN)C(=O)N[C@@H](C(=O)N[C@H](CC(C)C)C(=O)N[C@H](CO)C(=O)N[C@H](CCN)C(=O)N[C@H](C)C(=O)N[C@H](C)C(=O)N[C@H](C)C(=O)N[C@H](C)C(=O)N[C@H](C)C(=O)N[C@H](CC(C)C)C(=O)N[C@H](CCN)C(=O)N[C@@H](C(=O)N[C@H](CC(C)C)C(=O)N[C@H](CC(C)C)C(=O)N[C@H](CCN)C(=O)N[C@H](C)C(=O)N[C@H](CC(C)C)C(=O)N[C@H](CO)C(=O)N[C@H](CCN)C(N)=O)[C@H](C)O)[C@H](C)O [D86(K13A/K16A)-(Lys^1-6Dab-1), Ac-KL(Dab)SLL(Dab)TLS(Dab)AAAAAL(Dab)TLL(Dab)ALS(Dab)-amide] | 0.9 | 1.5 (≈ 3.87 µg/mL) | 0.8 (≈ 2.07 µg/mL) | 0.8 (≈ 2.07 µg/mL) | 0.8 (≈ 2.07 µg/mL) | 0.8 (≈ 2.07 µg/mL) | 0.8 (≈ 2.07 µg/mL) | 0.8 (≈ 2.07 µg/mL) | 0.9 | 0.5 (≈ 1.29 µg/mL) | 0.8 (≈ 2.07 µg/mL) | 0.8 (≈ 2.07 µg/mL) | 1.5 (≈ 3.87 µg/mL) | 3.1 (≈ 8.01 µg/mL) | 0.4 (≈ 1.03 µg/mL) | 0.8 (≈ 2.07 µg/mL) | 0.8 (≈ 2.07 µg/mL) | 0.8 (≈ 2.07 µg/mL) | 0.8 (≈ 2.07 µg/mL) | 4 | MIC 25% human serum (A. baumannii strain 649): 3.0 µM (≈ 7.75 µg/mL); MIC No serum (A. baumannii strain 649): 0.8 µM (≈ 2.07 µg/mL); Aqueous pH 7 [θ]222 [3]: 2,308 mdeg cm^2/(dmol*res); 50% TFE [θ]222 [3]: 18,731 mdeg cm^2/(dmol*res); Δ[Θ]222 TFE-aqueous [3]: 16,423 mdeg cm^2/(dmol*res); % Helix Induced [3]: 88%; Aqueous pH 7 % Helix [3]: 12% |
| CC(=O)N[C@H](CCCCN)C(=O)N[C@H](CC(C)C)C(=O)N[C@H](CN)C(=O)N[C@H](CO)C(=O)N[C@H](CC(C)C)C(=O)N[C@H](CC(C)C)C(=O)N[C@H](CN)C(=O)N[C@@H](C(=O)N[C@H](CC(C)C)C(=O)N[C@H](CO)C(=O)N[C@H](CN)C(=O)N[C@H](C)C(=O)N[C@H](C)C(=O)N[C@H](C)C(=O)N[C@H](C)C(=O)N[C@H](C)C(=O)N[C@H](CC(C)C)C(=O)N[C@H](CN)C(=O)N[C@@H](C(=O)N[C@H](CC(C)C)C(=O)N[C@H](CC(C)C)C(=O)N[C@H](CN)C(=O)N[C@H](C)C(=O)N[C@H](CC(C)C)C(=O)N[C@H](CO)C(=O)N[C@H](CN)C(N)=O)[C@H](C)O)[C@H](C)O [D105(K13A/K16A)-(Lys^1-6Dap-1), Ac-KL(Dap)SLL(Dap)TLS(Dap)AAAAAL(Dap)TLL(Dap)ALS(Dap)-amide] | 1.3 | 1.6 (≈ 4 µg/mL) | 0.8 (≈ 2 µg/mL) | 0.8 (≈ 2 µg/mL) | 1.6 (≈ 4 µg/mL) | 1.6 (≈ 4 µg/mL) | 1.6 (≈ 4 µg/mL) | 1.6 (≈ 4 µg/mL) | 2.0 | 3.2 (≈ 8 µg/mL) | 3.2 (≈ 8 µg/mL) | 1.6 (≈ 4 µg/mL) | 3.2 (≈ 8 µg/mL) | 0.8 (≈ 2 µg/mL) | 1.6 (≈ 4 µg/mL) | 1.6 (≈ 4 µg/mL) | 3.2 (≈ 8 µg/mL) | 1.6 (≈ 4 µg/mL) | 3.2 (≈ 8 µg/mL) | 15 | MIC 25% human serum (A. baumannii strain 649): 12.5 µM (≈ 31.2 µg/mL); MIC No serum (A. baumannii strain 649): 0.8 µM (≈ 2 µg/mL); Aqueous pH 7 [θ]222 [3]: 9,577 mdeg cm^2/(dmol*res); 50% TFE [θ]222 [3]: 18,038 mdeg cm^2/(dmol*res); Δ[Θ]222 TFE-aqueous [3]: 8,461 mdeg cm^2/(dmol*res); % Helix Induced [3]: 47%; Aqueous pH 7 % Helix [3]: 53% |
